Measured values: patent publication US5460697A, “Method of pulping wood chips with a fungi using sulfite salt-treated wood chips” (priority 1994, dated 1995)
Read-outs that look alike come from different tables or passages of the source.

How the values were obtained:
[1] = system: indigenous microorganisms; experiment: Effect of sulfite salts on indigenous microorganisms of unsterilized wood chips (plating); assay type: cell-based, indigenous microorganisms of unsterilized aspen wood chips; conditions: for first test: whether the salt inhibits growth of indigenous microorganisms: pass / not pass; for inhibition at 600 µg/mL / inhibition at 1200 µg/mL: read-out: Inhibition Relative to control; for inhibition of growth of indigenous microorganisms (in words): unsterilized wood chips, overall statement
Experimental: Aspen wood chips (50 g O.D. basis) were soaked in 500 ml of water containing either 0 mg, 781 mg or 1562 mg sodium bisulfite for about 1 hour at room temperature. After soaking, water was drained from the chips.
During the 1 hour soaking the chips soaked up about 31 ml of water. Therefore, the final moisture content of wood was about 61% (wet weight basis) and the final concentration of each chemical on water basis was about 0 μg/ml, 600 μg/ml and 1200 μg/ml.
Three chips were pulled randomly from each flask and plated on potato dextrose agar and tryptic soy agar plates. These plates were incubated at 27° C. for 24 or 27 h and the contaminants were visually observed.
A panel of other sulfur-containing chemicals were analyzed for their ability to inhibit the growth of indigenous microorganisms on unsterilized wood chips in the manner described above. Table 2 describes the various concentrations of these chemicals and the percent inhibition relative to control plates observed.

[2] = system: indigenous microorganisms; conditions: Lamar et al. 1990; cited from earlier work

SMILES: O=S([O-])S(=O)[O-].[Na+].[Na+] [Sodium Hydrosulfite]
- first test: whether the salt inhibits growth of indigenous microorganisms [1]: passed the first test
- inhibition at 600 µg/mL [1]: 70%
- inhibition at 1200 µg/mL [1]: 100%
- inhibition of growth of indigenous microorganisms (in words) [1]: successfully inhibited the growth of microorganisms

SMILES: O=S(=O)([O-])[O-].[Na+].[Na+] [Sodium Sulfate]
- Inhibition Relative to control ([1]; 600 μg/ml): 0%
- Inhibition Relative to control ([1]; 1200 μg/ml): 0%
- first test: whether the salt inhibits growth of indigenous microorganisms [1]: did not pass the test

SMILES: O=S([O-])[O-].[Na+].[Na+] [Sodium Sulfite]
- Inhibition Relative to control ([1]; 600 μg/ml): 0%
- Inhibition Relative to control ([1]; 1200 μg/ml): 0%
- first test: whether the salt inhibits growth of indigenous microorganisms [1]: did not pass the test

SMILES: O=S(=O)(O)SSS(=O)(=O)O [Sodium Tetrathionate]
- inhibition at 600 µg/mL [1]: 0%
- inhibition at 1200 µg/mL [1]: 0%

SMILES: O=S([O-])([O-])=S.[Na+].[Na+] [Sodium Thiosulfate]
- Inhibition Relative to control ([1]; 600 μg/ml): 0%
- Inhibition Relative to control ([1]; 1200 μg/ml): 0%

SMILES: O=S(O)S(=O)(=O)O [Sodium meta-Bisulfite]
- inhibition at 600 µg/mL ([1]; 600 μg/ml): 100%
- inhibition at 1200 µg/mL ([1]; 1200 μg/ml): 100%
- first test: whether the salt inhibits growth of indigenous microorganisms [1]: passed the first test
- inhibition of growth of indigenous microorganisms (in words) [1]: successfully inhibited the growth of microorganisms

SMILES: CBr [methyl bromide]
- inhibition of indigenous microorganisms (in words) [2]: inhibit a number of indigenous microorganisms

SMILES: O=S([O-])O.[K+] [potassium bisulfite]
- first test: whether the salt inhibits growth of indigenous microorganisms [1]: passed the first test
